Experimental data reported in patent publication US11873298B2, “Compounds and uses thereof” (JANSSEN PHARMACEUTICA NV, priority 2017, dated 2024).

Columns and labels:
SCD1 = target: T1, SCD1 (Homo sapiens, UniProt O00767); experiment: Growth inhibition of humanized yeast strain expressing SCD1 as sole desaturase; format: cell-based
T1 construct: host or cells: S. cerevisiae ole1Δ strain (W303 pdr1Δ pdr3Δ background), plasmid pRS316 with TDH3 promoter and CYC1 terminator
T1 sequence (O00767 1-359): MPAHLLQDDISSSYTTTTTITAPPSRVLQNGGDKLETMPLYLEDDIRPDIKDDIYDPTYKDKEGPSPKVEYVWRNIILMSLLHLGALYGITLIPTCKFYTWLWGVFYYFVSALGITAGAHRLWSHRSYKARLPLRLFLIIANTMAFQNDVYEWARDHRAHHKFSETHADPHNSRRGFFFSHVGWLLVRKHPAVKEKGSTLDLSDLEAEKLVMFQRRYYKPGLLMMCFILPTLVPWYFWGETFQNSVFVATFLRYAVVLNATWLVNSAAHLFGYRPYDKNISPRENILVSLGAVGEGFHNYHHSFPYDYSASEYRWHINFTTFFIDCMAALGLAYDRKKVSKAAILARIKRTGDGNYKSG
Description: (§1) Strain oleΔ (yeast ole1 deletion mutant) was constructed by deleting OLE1 with NAT-MX6 in BY4741, amplifying the deletion cassette from the genomic DNA of the resulting strain with primers flanking the ORF by 1000 bp upstream and downstream, transforming the resulting deletion cassette into W303 pdr1Δ pdr3Δ, and plating transformants on YPD media containing G418 (200 μg/mL) and nourseothricin ([…]) with 0.01% TWEEN®-20 and 0.5 mM oleic and palmitoleic acids.
(§2) The coding sequence of yeast OLE1 was also cloned into this plasmid). These clones were then transformed into the ole1Δ strain and plated on CSM-Ura media (CSM lacking uracil) with 2% glucose (w/v) and independent colonies were isolated and amplified.
(§3) All compound profiling experiments were performed using the same basic protocol. Different genetic backgrounds (e.g., gene deletions) or conditions (e.g., addition of oleic and palmitoleic acid) were replaced as indicated below.
(§4) Yeast were cultured using standard techniques in complete synthetic media (CSM) and yeast nitrogen base supplemented with 2% (w/v) carbon source (glucose, raffinose, or galactose) to regulate the expression of the toxic disease protein. An initial starter culture was inoculated in 3 mL CSM-Glucose media and incubated overnight in a 30° C. shaker incubator (225 rpm). Saturated morning cultures were then diluted 1:20 in fresh CSM-Raffinose media and grown for 6 h to an OD600 (optical density) of ˜0.4-0.8 at 30° C. with shaking.
(§5) Compound administration was performed in two separate steps. First, 15 μL of CSM-Galactose (induces expression of toxic protein) was dispensed into clear 384 well assay plates using a MULTIDROP™ Combi reagent dispenser. […] The cultures described above were then diluted to a 2× concentration (0.03 and 0.08 for alpha-synuclein and ApoE, final ODsoo of 0.015 and 0.04) in CSM-Galactose. For wild-type and Ole1/SCD1/SCD5 plasmid-containing strains, the 2× cell density was 0.02. […] For 96-well assays (FIGS. 1A and 1B), compound dilutions in DMSO were generated in 96 well plates and 1 μL was manually pipetted into 96 well clear bottom assay plates.
(§6) For experiments using a plasmid-borne copy of Ole1, SCD1, or SCD5 (FIGS. 3B, 6, and 7), media lacking uracil (SX-Ura, where X is glucose, raffinose, or galactose), was used for all steps of the compound profiling protocol to ensure its maintenance throughout the assay.
(§7) After yeast delivery, assay plates were incubated under humidified conditions at 30° C. for 24 to 40 h. ApoE4 rescue experiments were stopped at 24 h, aSyn experiments at 40 h, Ole1 at 24 h, and SCD1/SCD5 at 40 h. The growth of yeast was monitored by reading the ODsoo of each well using a microplate reader (Perkin Elmer EnVision™).

SCD5 = target: T2, SCD5 (Homo sapiens, UniProt Q86SK9); experiment: Growth inhibition of humanized yeast strain expressing SCD5 as sole desaturase; format: cell-based
T2 construct: host or cells: S. cerevisiae ole1Δ strain (W303 pdr1Δ pdr3Δ background), plasmid pRS316 with TDH3 promoter and CYC1 terminator
T2 sequence (Q86SK9 1-330): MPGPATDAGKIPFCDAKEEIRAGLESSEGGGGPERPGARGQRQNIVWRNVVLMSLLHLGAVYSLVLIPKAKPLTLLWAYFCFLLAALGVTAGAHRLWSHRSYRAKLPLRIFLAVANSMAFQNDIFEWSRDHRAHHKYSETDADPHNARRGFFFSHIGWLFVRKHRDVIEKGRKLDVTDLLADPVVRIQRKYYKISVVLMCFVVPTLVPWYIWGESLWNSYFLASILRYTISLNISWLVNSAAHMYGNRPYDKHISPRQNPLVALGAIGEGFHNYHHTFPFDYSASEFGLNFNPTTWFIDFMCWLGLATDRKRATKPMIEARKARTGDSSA
Description: as §1, §2, §3, §4, §5, §6, §7

[1] = humanized yeast strain expressing SCD1
[2] = humanized yeast strain expressing SCD5
[3] = yeast strain expressing human SCD1 as sole desaturase, Table 8
[4] = yeast strain expressing human SCD5 as sole desaturase, Table 8

Row | Structure (SMILES) | IC50 (SCD5; [2]) [µM] | IC50 (SCD5; [4]) [µM] | also measured
1 | Cc1nn(C)c2cc(-c3noc(C4CCN(Cc5ccccc5)C(=O)C4)n3)ccc12 (stereo not shown) [Compound 354] | > 45 | – | IC50 (SCD1; [1]): > 45 µM; SCD1 % Max Inhibition (SCD1; [1]): 30.16%; SCD5 % Max Inhibition (SCD5; [2]): 4.29%
2 | COC(=O)N1CCC(c2nc(-c3ccc4cnn(C(C)C)c4c3)no2)CC1 [Compound 355] | > 45 | – | SCD1 % Max Inhibition (SCD1; [1]): 71.31%; SCD5 % Max Inhibition (SCD5; [2]): 3.68%
3 | COC(=O)N1CCN(c2nc(-c3ccc4cnn(C(C)C)c4c3)no2)CC1 [Compound 356] | > 45 | – | SCD1 % Max Inhibition (SCD1; [1]): 51.18%; SCD5 % Max Inhibition (SCD5; [2]): 2.88%
4 | CC(C)OC(=O)N1CCC(c2nc(-c3ccc4cnn(C(C)C)c4c3)no2)CC1 [Compound 357] | > 45 | – | SCD1 % Max Inhibition (SCD1; [1]): 64.32%; SCD5 % Max Inhibition (SCD5; [2]): 2.31%
5 | CC(C)n1ncc2ccc(-c3noc(C4CCN(C(=O)COc5ccccc5)CC4)n3)cc21 [Compound 358] | > 45 | – | SCD1 % Max Inhibition (SCD1; [1]): 59.61%; SCD5 % Max Inhibition (SCD5; [2]): 4.53%
6 | Cn1ncc2ccc(-c3noc(C4CCN(C(=O)OC(C)(C)C)CC4)n3)cc21 [Compound 359] | > 45 | – | SCD1 % Max Inhibition (SCD1; [1]): 55.70%; SCD5 % Max Inhibition (SCD5; [2]): 0.81%
7 | CC(C)(C)OC(=O)N1CCC(c2nc(-c3ccc4cnn(C5CC5)c4c3)no2)CC1 [Compound 360] | > 45 | – | SCD1 % Max Inhibition (SCD1; [1]): 64.03%; SCD5 % Max Inhibition (SCD5; [2]): 2.38%
8 | CCOC(=O)N1CCC(c2nc(-c3ccc4cnn(C(C)C)c4c3)no2)CC1 [Compound 361] | > 45 | – | SCD1 % Max Inhibition (SCD1; [1]): 67.22%; SCD5 % Max Inhibition (SCD5; [2]): 0.95%
9 | CC(C)n1ncc2ccc(-c3noc(N4CCN(C(=O)c5ccccc5)CC4)n3)cc21 [Compound 362] | > 45 | – | SCD1 % Max Inhibition (SCD1; [1]): 67.00%; SCD5 % Max Inhibition (SCD5; [2]): 2.26%
10 | CC(C)n1ncc2ccc(-c3noc(C4CCN(C(=O)c5ccc(Cl)cc5)CC4)n3)cc21 [Compound 363] | > 45 | – | SCD1 % Max Inhibition (SCD1; [1]): 64.44%; SCD5 % Max Inhibition (SCD5; [2]): 1.99%
11 | CC(C)n1ncc2ccc(-c3noc(N4CCN(C(=O)c5ccccc5Cl)CC4)n3)cc21 [Compound 364] | > 45 | – | SCD1 % Max Inhibition (SCD1; [1]): 70.82%; SCD5 % Max Inhibition (SCD5; [2]): 2.22%
12 | Cc1nn(C)c2cc(-c3noc(C4CN(C(=O)OC(C)(C)C)C4)n3)ccc12 [Compound 365] | > 45 | – | SCD1 % Max Inhibition (SCD1; [1]): 58.08%; SCD5 % Max Inhibition (SCD5; [2]): 23.74%
13 | CC(C)n1ncc2ccc(-c3noc(N4CCN(C(=O)OC5(C)CC5)CC4)n3)cc21 [Compound 496] | 0.445 | – | IC50 (SCD1; [1]): > 45 µM
14 | Cn1ncc2ccc(-c3noc(C4CCNCC4)n3)cc21 [Compound 500] | > 45 | – | IC50 (SCD1; [1]): > 45 µM
15 | C=C(C)c1ccc(C(=O)N2CCC(c3nc(-c4ccc5cnn(C)c5c4)no3)CC2)nc1 [Compound 501] | 21.3 | – | IC50 (SCD1; [1]): 12.2 µM
16 | COC(=O)N1CCC(c2noc(-c3ccc4cnn([C@@H]5CCOC5)c4c3)n2)CC1 [Compound 876] | – | – | IC50 (SCD1; humanized yeast strain, 40 h): > 45 µM
17 | COC(=O)N1CCC(c2noc(-c3ccc4cnn([C@@H]5CCOC5)c4c3)n2)CC1 [Compound 877] | – | – | IC50 (SCD1; humanized yeast strain, 40 h): > 45 µM
18 | CC(C)(C)OC(=O)N1CCC(c2noc(-c3ccc4cnn([C@H]5CCOC5)c4c3)n2)CC1 [Compound 1201] | – | – | IC50 (SCD1; [3]): 1.4 µM
19 | CC1(OC(=O)N2CCC(c3noc(-c4ccc5cnn([C@H]6CCOC6)c5c4)n3)CC2)CC1 [Compound 1209] | – | – | IC50 (SCD1; [3]): 12.6 µM
20 | Cc1cc(-c2nc(C3CCN(C(=O)OC(C)(C)C)CC3)no2)cc(C2CCOC2)n1 (stereo not shown) [Compound 1266] | – | – | IC50 (SCD1; [3]): 31.7 µM
21 | CC(C)(C)OC(=O)N1CCC(c2noc(-c3ccnc(-c4ccon4)c3)n2)CC1 [Compound 1277] | – | 2.5 | –
22 | O=C(C1CC1)N1CCC(c2noc(-c3cc(C4CCOC4)ccn3)n2)CC1 (stereo not shown) [Compound 1278] | – | 2.73 | –
23 | CCC(=O)N1CCC(c2noc(-c3cc(C4CCOC4)ccn3)n2)CC1 (stereo not shown) [Compound 1281] | – | 6.99 | –
24 | CC1CN(c2cc(-c3nc(C4CCN(C(=O)OC(C)(C)C)CC4)no3)ccc2F)CC(C)O1 (stereo not shown) [Compound 1282] | – | 0.22 | –

Row | Structure (SMILES) | IC50 (SCD5; [2]) [µM] | IC50 (SCD5; [4]) [µM] | also measured
25 | CC(C)(C)OC(=O)N1CCC(c2noc(-c3cc(C4CCOC4)c(F)cn3)n2)CC1 (stereo not shown) [Compound 1284] | – | 0.02 | –
26 | O=C(C1CCC1)N1CCC(c2noc(-c3cc(C4CCOC4)ccn3)n2)CC1 (stereo not shown) [Compound 1285] | – | 0.9 | –
27 | CC(C)(C)OC(=O)N1CCC(c2noc(-c3cc(N4CCC(F)(F)C4)ccn3)n2)CC1 [Compound 1286] | – | 4.29 | –
28 | CC(C)(C)OC(=O)N1CCC(c2noc(-c3cc(N4CCC(F)(F)C4)c(F)cn3)n2)CC1 [Compound 1287] | – | 0.34 | –
29 | CC(C)(C)OC(=O)N1CCC(c2noc(-c3cc(N4CCOCC4)ccn3)n2)CC1 [Compound 1288] | – | 5.55 | –
30 | CC(C)(C)OC(=O)N1CCC(c2noc(-c3ccc(C#N)c(N4CCOCC4)c3)n2)CC1 [Compound 1290] | – | 0.52 | –
31 | CC(C)C(=O)N1CCC(c2noc(-c3ccc(C#N)c(N4CCOCC4)c3)n2)CC1 [Compound 1291] | – | 0.65 | –
32 | O=C(OC1CCC1)N1CCC(c2noc(-c3ccn(C4COC4)c(=O)c3)n2)CC1 [Compound 1292] | – | 15.1 | –
33 | CC(C)(C)OC(=O)N1CCC(c2noc(-c3ccnc(-c4cocn4)c3)n2)CC1 [Compound 1293] | – | 0.49 | –
34 | Cn1cnc(-c2cc(-c3nc(C4CCN(C(=O)OC(C)(C)C)CC4)no3)ccn2)c1 [Compound 1294] | – | 0.19 | –
35 | O=C(C1CC1)N1CCC(c2noc(-c3cc(C4CCOC4)c(F)cn3)n2)CC1 (stereo not shown) [Compound 1296] | – | 0.25 | –
36 | O=C(C1CCC1)N1CCC(c2noc(-c3cc(C4CCOC4)c(F)cn3)n2)CC1 (stereo not shown) [Compound 1297] | – | 0.16 | –
37 | CC1(OC(=O)N2CCC(c3noc(-c4cc(C5CCOC5)c(F)cn4)n3)CC2)CC1 (stereo not shown) [Compound 1298] | – | 0.03 | –
38 | CCC(=O)N1CCC(c2noc(-c3cc(N4CCOCC4)ccn3)n2)CC1 [Compound 1300] | – | 0.06 | –
39 | CC(C)(C)OC(=O)N1CCC(c2noc(-c3cc(F)c(F)c(N4CCOCC4)c3)n2)CC1 [Compound 1301] | – | 5.18 | –
40 | CC(C)C(=O)N1CCC(c2noc(-c3ccc(F)c(N4CCOC5(CC5)C4)c3)n2)CC1 [Compound 1302] | – | 0.9 | –
41 | CC(C)(C)OC(=O)N1CCC(c2noc(-c3ccc(F)c(N4CCOC5(CC5)C4)c3)n2)CC1 [Compound 1303] | – | 0.05 | –
42 | CC(C)C(=O)N1CCC(c2noc(-c3cc(F)c(F)c(N4CCOCC4)c3)n2)CC1 [Compound 1304] | – | 11.9 | –
43 | CC1CN(c2cc(-c3nc(C4CCN(C(=O)C(C)C)CC4)no3)ccc2F)CC(C)O1 (stereo not shown) [Compound 1305] | – | 5.39 | –
44 | CC1(OC(=O)N2CCC(c3noc(-c4ccnc(-c5ccon5)c4)n3)CC2)CC1 [Compound 1306] | – | 5.38 | –
45 | O=C(OC1CCC1)N1CCC(c2noc(-c3ccc(=O)n(C4COC4)c3)n2)CC1 [Compound 1309] | – | 1.03 | –
46 | CC1(OC(=O)N2CCC(c3noc(-c4ccnc(-c5cocn5)c4)n3)CC2)CC1 [Compound 1310] | – | 0.47 | –
47 | CCC(=O)N1CCC(c2noc(-c3cc(N4CCC(F)(F)C4)c(F)cn3)n2)CC1 [Compound 1311] | – | 7.74 | –
48 | O=C(OC1CCC1)N1CCC(c2noc(-c3cc(C4CCOC4)ncn3)n2)CC1 (stereo not shown) [Compound 1312] | – | 0.02 | –
